Source: article PMC8318231, “Rate-of-Kill (RoK) assays to triage large compound sets for Chagas disease drug discovery: Application to GSK Chagas Box” (PLoS Neglected Tropical Diseases, 2021)

Each compound was assayed on H9c2 (rat cardiomyocytes) (assay: RoK assay, number of host cells nuclei (drug-related cytotoxicity, H9c2 output, Cmin_Tox)). Conditions: not given.
Procedure: For this high-content intracellular imaging assay, H9c2 cells were seeded in 225 cm^2 T- FLASK in DMEM with 10% FBS for 4 h to allow attachment. T. cruzi trypomastigotes, collected at days 5 to 8 after infection from LLC-MK2 parasite infected cultures, were allowed to swim out for 4 h at 37°C from a centrifuged pellet (1,600 x g / 10 min). Trypomastigotes were then collected and counted in a CASY Cell Counter using the 60 μm capillary. […] Cells were washed once with PBS before incubation of the infected H9c2 monolayer with trypsin (Life-Technologies) to detach cells from the flask. Cells were counted in a CASY Cell Counter, using the 150 μm capillary, and their density set at 5 x 10^4 cells/mL in supplemented DMEM. Infected H9c2 were dispensed into 384-well plates at 50 μL per well using a Multidrop Combi dispenser. Control wells used to determine a 100% parasitic growth (full 6th column of each plate) were left untreated, whereas not infected cells were added in the control wells used as 0% parasite growth (or 100% parasite growth inhibition; full 18th column of each plate). The four plates corresponding to each RoK assay were predispensed for the same mother plate. […] Cultures were then fixed and stained with 50 μL per well of a PBS solution containing 4% formaldehyde and 2 μM DRAQ5 DNA dye (BioStatus, UK). Then plates were read in a PerkinElmer Opera Phenix using a 20x objective, 3 fields per well. DRAQ5 signal was detected using 640 nm excitation laser and a 690/50 nm emission detection filter. Automated image analysis was performed with a script developed on Acapella High Content Imaging and Analysis Software (PerkinElmer). Two outputs were provided for each sample well: (1) number of host cells nuclei to determine drug-related cytotoxicity (aka H9c2) and (2) number of amastigotes per cell as infection level measurement (aka AM/CELL). Each output is plotted as a time course for each compound at every concentration. This assay was adapted from Alonso-Padilla et al. and Peña et al..
• ME (Maximum Effect) is the maximum percentage of parasite burden reduction reached by any compound concentration. Compounds that decrease the initial parasite load will show a positive value of ME, whereas compounds that allow the progression of infection will render a negative ME value. […] It is calculated for the MCC50 (t50%_MCC50) and for the maximum concentration (t50%_Cmax). […] The value of this parameter is not either interpolated or extrapolated, and it refers to the first experimental time-course point at which a 50% of effect is reached or exceeded. • tlag defines the time elapsed for one particular concentration to reduce parasite burden between two consecutive points at any moment of the time course. It is calculated for the MCC50 (tlag_MCC50) and for the maximum concentration (tlag_Cmax). The value of this parameter is not either interpolated or extrapolated, and it refers to the first experimental time-course point of a positive slope in the normalised plot (i.e. %Cidal_Response). • Cmin_Tox (Minimal CytoToxic Concentration) is the lowest compound concentration that is reducing the number of host mammalian cells below 50% of initial cell density. Cytotoxic compounds may mislead a bona fide antiparasitic action. Therefore, this descriptor is used to flag this kind of compounds and warn about the genuine meaning of the rest of descriptors.

| SMILES | cytotoxicity versus host cells (in words) |
| --- | --- |
| COc1cccc(CCNC(=O)C(c2cn[nH]c2)N2CCN(c3ccc(Cl)cc3)CC2)c1 (stereo not drawn) [TCMDC-143434] | hints of cytotoxicity even at low concentrations |

Same assay, conditions: H9c2 host cells

| SMILES | Cmin_Tox |
| --- | --- |
| O=C(Cn1ccnc1[N+](=O)[O-])NCc1ccccc1 [Benznidazole, benznidazole, reference compound] | >50 µM |
| CC1CS(=O)(=O)CCN1/N=C/c1ccc([N+](=O)[O-])o1 (stereo not drawn) [Nifurtimox, nifurtimox, reference compound] | >50 µM |
| CC[C@@H]([C@H](C)O)n1ncn(-c2ccc(N3CCN(c4ccc(OC[C@@H]5CO[C@@](Cn6cncn6)(c6ccc(F)cc6F)C5)cc4)CC3)cc2)c1=O [Posaconazole, reference compound] | 42.2 µM |
| Cc1sc(C)c(C(F)(F)F)c1CNCCCNc1cc(=O)c2ccccc2[nH]1.Cl [TCMDC-140766] | 50.0 µM |
| CC(C)N(C(=O)CN1C(=O)C(N)C(=O)N(c2ccccc2)c2ccccc21)c1ccccc1 (stereo not drawn) [TCMDC-143071] | >50 µM |
| O=c1[nH]cnc2c([C@@H]3O[C@H](CO)[C@@H](O)[C@H]3O)n[nH]c12 [TCMDC-143083, Formycin B] | >50 µM |
| COc1ccc(CN(C)Cc2ccncc2)cc1-c1ccc(S(=O)(=O)NC2CCC2)s1.O=C(O)C(F)(F)F.O=C(O)C(F)(F)F [TCMDC-143084] | >50 µM |
| CN(C)Cc1ccc(-c2ccc(S(=O)(=O)NCC3CCCO3)c(F)c2)cc1.O=C(O)C(F)(F)F (stereo not drawn) [TCMDC-143085] | >50 µM |
| Cc1nc2nc(C)c(Cc3ccc(C(C)C)cc3)c(=O)n2[nH]1 [TCMDC-143087] | >50 µM |
| COc1cc(C(C)C)c(S(C)(=O)=O)cc1C(=O)N1CCN(c2ccccc2Cl)CC1 [TCMDC-143097] | >50 µM |
| COc1ccc(NS(=O)(=O)c2cccc(NC(=O)c3cc(F)cc(F)c3)c2)cc1 [TCMDC-143108] | >50 µM |
| Cc1cc(N(C)C)nc(Nc2ccccc2C)n1 [TCMDC-143109] | >50 µM |
| O=C1CSC(c2cccnc2)N1c1ccc(Cl)cc1Cl (stereo not drawn) [TCMDC-143114] | >50 µM |
| CN1CCCN(C(=O)c2ccc(N3CCCC3)cc2Cl)CC1 [TCMDC-143127] | >50 µM |
| COc1ccc(C2CC(c3ccccc3Cl)=NN2C(=O)CNC(=O)C2CCC2)cc1 (stereo not drawn) [TCMDC-143130] | >50 µM |
| CCC(=O)Nc1ccc(-c2nc3ccc(Cl)cc3[nH]2)cc1 [TCMDC-143135] | >50 µM |
| COc1ccc(-c2nc3ncccc3o2)cc1NC(=O)c1cccs1 [TCMDC-143137] | >50 µM |
| Cc1nnnn1-c1cccc(C(=O)N2CCC[C@@]3(C)c4ncncc4CCC23)c1 (stereo partly drawn) [TCMDC-143148] | >50 µM |
| Cc1c(C#N)c([N+](=O)[O-])nn1Cc1cccc(Cl)c1Cl [TCMDC-143152] | >50 µM |
| CCOc1ccc(NC(=O)C=Cc2ccc(CC)o2)cc1 [TCMDC-143160] | 50.0 µM |
| COc1ccc(NS(=O)(=O)c2cc(NC(=O)c3ccc([N+](=O)[O-])s3)ccc2OC)cc1 [TCMDC-143163] | >50 µM |

| SMILES | Cmin_Tox |
| --- | --- |
| NC(=O)c1ccccc1Nc1nc(NC2CCCCC2)nc2[nH]ccc12 [TCMDC-143314] | 1.9 µM |
| CCCCn1nnnc1CSc1nc(C)cc(C)c1C#N [TCMDC-143315] | >50 µM |
| O=C(CSc1ccc(F)cc1)N[C@@H](Cc1cnc[nH]1)C(=O)NCCc1ccccc1.O=C(O)C(F)(F)F [TCMDC-143317] | >50 µM |
| CCOc1cnn(C)c(=O)c1Nc1ccc(C(=O)NCc2ccc(F)cc2)cc1 [TCMDC-143319] | >50 µM |
| O=C(NC1C(=O)N(c2ccccc2)C1c1cccnc1)c1ccc(Cl)s1 (stereo not drawn) [TCMDC-143324] | >50 µM |
| CCn1nccc1CN(C)C(=O)C=Cc1ccc(Cl)cc1 [TCMDC-143325] | >50 µM |
| Cc1[nH]nc2c1C(c1ccc(OCc3ccccc3F)cc1)SCC(=O)N2 (stereo not drawn) [TCMDC-143328] | >50 µM |
| CCCN(Cc1ccc(OC)c(OC)c1)Cc1cc(=O)c2c(C)cc(C)cc2[nH]1 [TCMDC-143331] | >50 µM |
| CC(C)(C)C(Cn1ccnc1)NC(=O)c1ccc2nc(C3CC3)oc2c1 (stereo not drawn) [TCMDC-143336] | >50 µM |
| c1ccc(CCNCc2cncc3nc(-c4cnccn4)n(C4CCCCC4)c23)cc1 [TCMDC-143346] | >50 µM |
| CC(=O)Nc1ccc(-c2noc(CC3CCCN(Cc4cccc(F)c4C)C3)n2)cc1 (stereo not drawn) [TCMDC-143362] | 50.0 µM |
| N#Cc1ccc(S(=O)(=O)N2CCC3(CCN(c4ccccc4)C3=O)CC2)cc1 [TCMDC-143371] | >50 µM |
| CC(C)Nc1nccc(-c2c(-c3ccc(F)cc3)ncn2C2CCOCC2)n1 [TCMDC-143379] | >50 µM |
| O=C(N1CCc2ccccc2CC1)C1(C(=O)N2CCC(n3c(=O)[nH]c4ncccc43)CC2)CC1.O=C(O)C(F)(F)F [TCMDC-143381] | >50 µM |
| COc1ccc2ncc(=O)n(CCN3CCOC(CNCc4ccc(C(F)(F)F)cc4F)C3)c2n1 (stereo not drawn) [TCMDC-143384] | >50 µM |
| CS(=O)(=O)c1cccc(CNC(=O)c2cncc(N3CCN(c4ccc(F)cc4)CC3)c2)c1.O=C(O)C(F)(F)F.O=C(O)C(F)(F)F.O=C(O)C(F)(F)F [TCMDC-143385] | >50 µM |
| O[C@H]1CC[C@H](Nc2nccc(-c3sc(C4CCOCC4)nc3-c3ccc(F)c(F)c3)n2)CC1 [TCMDC-143387] | 16.7 µM |
| O=C(O)C(F)(F)F.O=c1oc2ccccc2n1C1CCN(Cc2ccccc2-c2cccnc2)CC1 [TCMDC-143389] | >50 µM |
| Cc1c(C(C)NC(=O)Nc2cccc(Cl)c2)sc2ncnn12 (stereo not drawn) [TCMDC-143405] | >50 µM |
| O=C(c1cccc(Cl)c1Cl)N1CCn2c1nc(-c1ccncc1)cc2=O [TCMDC-143409] | >50 µM |
| CS(=O)(=O)c1cccc(-c2cnc(N)c3c(-c4ccc(CO)cc4)csc23)c1.O=C(O)C(F)(F)F [TCMDC-143410] | >50 µM |

| SMILES | Cmin_Tox |
| --- | --- |
| O=C(NCCc1ccccn1)C(c1cn[nH]c1)N1CCN(c2ccc(Cl)c(Cl)c2)CC1 (stereo not drawn) [TCMDC-143411] | >50 µM |
| COc1cc(-c2nc(N3CCOCC3)sc2-c2ccnc(NC3CCOCC3)n2)ccc1Cl.O=C(O)C(F)(F)F [TCMDC-143414] | >50 µM |
| CC(=Cc1ccccc1)CN1CCC(=O)N(Cc2cccnc2)CC1 [TCMDC-143421] | >50 µM |
| CC(C)Oc1cccc(N2CCC(C(=O)N3CCCN(C(C)C)CC3)CC2)c1.Cl [TCMDC-143432] | >50 µM |
| CCN(Cc1ccncc1)Cc1ccc(NC(=O)c2cc(-c3ccc(F)cc3)n[nH]2)cc1 [TCMDC-143433] | >50 µM |
| COc1cccc(CCNC(=O)C(c2cn[nH]c2)N2CCN(c3ccc(Cl)cc3)CC2)c1 (stereo not drawn) [TCMDC-143434] | >50 µM |
| CC(C)c1cc(C(=O)N2CCCC(c3cc4ncccc4[nH]3)C2)on1 (stereo not drawn) [TCMDC-143439] | >50 µM |
| Fc1ccc(OC2CC(NCc3cccc4cn[nH]c34)C2)cc1C(F)(F)F (stereo not drawn) [TCMDC-143455] | 16.7 µM |
| CNc1c(C(N)=O)c(-c2ccc3scnc3c2)nn1CC(F)(F)F.O=C(O)C(F)(F)F [TCMDC-143463] | >50 µM |
| OCCCNc1nc(Nc2ccncc2)nc2ccccc12 [TCMDC-143476] | >50 µM |
| Cc1nn(C)c(Cl)c1CN(Cc1cccnc1)Cc1ccsc1 [TCMDC-143477] | >50 µM |
| Cc1ccc(C)c(OC2CCN(C(=O)C(C)n3ccnc3)CC2)c1 (stereo not drawn) [TCMDC-143481] | >50 µM |
| Cc1[nH]c2ccccc2c(=O)c1Cc1c(C)[nH]c2ccccc2c1=O [TCMDC-143490] | >50 µM |
| CNc1cc(C)nc(C2CN(C(=O)c3n[nH]c4ccccc34)CCO2)c1 (stereo not drawn) [TCMDC-143494] | >50 µM |
| Cc1nccn1C1CCCN(C(=O)c2cc3c(F)cccc3s2)C1 (stereo not drawn) [TCMDC-143498] | >50 µM |
| Cc1cc2cncn2c(C2CCCCN2C(=O)c2cccs2)n1 (stereo not drawn) [TCMDC-143500] | >50 µM |
| Cn1cncc1CN1CCC2(CC1)COC(Cc1ccccc1)C2 (stereo not drawn) [TCMDC-143502] | >50 µM |
| CN(Cc1ccc(C(N)=O)cc1)C(c1ccc(F)cc1)c1cccnc1 (stereo not drawn) [TCMDC-143504] | >50 µM |
| O=C(C1CCCCC1)N1CCN(c2nnc(-c3ccccc3)c3ccccc23)CC1 [TCMDC-143511] | >50 µM |
| CN(C(=O)Nc1ccc2c(c1)CCN(C1CCC1)CC2)c1ccc(C#N)cc1.Cl [TCMDC-143526] | >50 µM |
